Measurements as given in patent US20250304620A1, “ANTIMICROBIAL PEPTIDE AND APPLICATION THEREOF” (priority 2023, published 2025).
Converted amounts (≈) assume the structure as drawn. Marks after values point to notes of the source that are not given here. Non-standard residues stand in square brackets, D forms with d. Residues, ends and D or L forms follow the SMILES beside them. dPhe(4-CF3) = N[C@H](Cc1ccc(C(F)(F)F)cc1)C(=O)O; d2Nal = N[C@H](Cc1ccc2ccccc2c1)C(=O)O; dNle = CCCC[C@@H](N)C(=O)O

How the values were obtained:
[1] = system: Staphylococcus aureus (NRS 384); test: microbe, parasite or virus in culture; format: cell-based; settings: NRS 384
Procedure, shortened: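 CLSI broth microdilution with serial twofold dilutions gave MICs against S. aureus NRS 384, with 5 parallel replicates. Levofloxacin and the AMP Cbf-K16 served as positive controls.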

[2] = system: Candida glabrata ATCC 15126; format: cell-based
Procedure, shortened: (§1)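 Serial twofold peptide dilutions were set up in microdilution format per CLSI, MICs were read, and the procedure was repeated in 5 parallel runs.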

Candida krusei ATCC 6258 = format: cell-based
Procedure, shortened: as §1

[3] = system: Corynebacterium ATCC 7715; format: cell-based
Procedure, shortened: as §1

[4] = system: Trichophyton ATCC MYA-4438; format: cell-based
Procedure, shortened: as §1

[5] = system: Shigella flexneri ATCC 12022; test: MIC against clinically common bacterial strain; format: cell-based
Procedure, shortened: as §1

[6] = system: Methicillin-resistant Staphylococcus aureus (MRSA); format: cell-based; settings: Methicillin-resistant
Procedure, shortened: (§2)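 MICs of antimicrobial peptides determined by CLSI serial twofold microdilution against clinical drug-resistant isolates. Five parallel repeats.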

[7] = system: carbapenem-resistant Escherichia coli (CREC); format: cell-based; settings: carbapenem-resistant (CREC)
Procedure, shortened: as §2

[8] = system: carbapenem-resistant Klebsiella pneumoniae (CRKP); format: cell-based; settings: carbapenem-resistant (CRKP)
Procedure, shortened: as §2

[9] = system: carbapenem-resistant Pseudomonas aeruginosa (CRPA); format: cell-based; settings: carbapenem-resistant (CRPA)
Procedure, shortened: as §2

[10] = system: vancomycin-resistant Enterococcus (VRE); format: cell-based
Procedure, shortened: as §2

rabbit red blood cells = format: cell-based; settings: red cells of rabbit, 1 h
[11] = system: Staphylococcus aureus (NRS 384); settings: NRS 384, 3 h
Protocol: Trypsin (250 U/mg, pH=8.0) and AMPs (LV-1 to LV-30) were mixed in a ratio of 1:10 (w/w) and added to a reaction buffer (0.2 M sodium phosphate, 1 mM CaCl2), pH 7.5), and then incubated at 37° C. for 3 h.

[12] = system: Escherichia coli ATCC 25922; test: Oral formulations on mice with systemic bacterial infection; format: in vivo, ICR mice; settings: three times a day for 7 days; for Number of mice that died on each day after infection: day 4 / Number of mice that died on each day after infection: day 5 / Number of mice that died on each day after infection: day 6 / Number of mice that died on each day after infection: day 7 / Number of mice that died on each day after infection: day 8 / Average survival times (Days): n = 10; for Average survival times (Days): observed for 14 d
Procedure, shortened: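 ICR mice of both sexes, 10 per group, infected i.p. with 0.2 mL E. coli ATCC 25922 at 1×10^7 CFU/mL. Compounds gavaged by body weight immediately after infection, three times daily for 7 days; deaths and survival time recorded over 14 d observation.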

[13] = Serum stability assay (residual level by RP-HPLC); settings: human

Row | Structure (SMILES) | MIC against Staphylococcus aureus (NRS 384) [1] [µg/mL] | MIC Candida glabrata ATCC 15126 [2] [µg/mL] | MIC Candida krusei ATCC 6258 (Candida krusei ATCC 6258) [µg/mL] | MIC Corynebacterium ATCC 7715 [3] [µg/mL] | MIC Trichophyton ATCC MYA-4438 [4] [µg/mL] | MIC Shigella flexneri ATCC 12022 [5] [µg/mL] | MIC MRSA [6] [µg/mL] | MIC CREC [7] [µg/mL] | MIC CRKP [8] [µg/mL] | MIC CRPA [9] [µg/mL] | MIC VRE [10] [µg/mL] | MHC (minimum hemolytic concentration, lowest concentration causing 10% hemolysis) (rabbit red blood cells) [µg/mL] | Trypsin MIC [11] [µg/mL] | Number of mice that died on each day after infection: day 4 ([12]; 1 mg/kg gavage) [Mouse] | Number of mice that died on each day after infection: day 5 ([12]; 1 mg/kg gavage) [Mouse] | Number of mice that died on each day after infection: day 6 ([12]; 1 mg/kg gavage) [Mouse] | Number of mice that died on each day after infection: day 7 ([12]; 1 mg/kg gavage) [Mouse] | Number of mice that died on each day after infection: day 8 ([12]; 1 mg/kg gavage) [Mouse] | Average survival times (Days) ([12]; 1 mg/kg gavage) | remaining at 12 h, 0.91 mg/mL [13] [%] | further results
1 | CCCC[C@@H](NC(=O)[C@@H](CCCCN)NC(=O)[C@@H](CCCNC(=N)N)NC(C)=O)C(=O)N[C@H](CCCC)C(=O)N[C@H](Cc1ccc2ccccc2c1)C(=O)N[C@H](CCCNC(=N)N)C(=O)N[C@H](CCCC)C(=O)N[C@H](CCCCN)C(=O)N[C@H](Cc1ccc2ccccc2c1)C(=O)N[C@H](CCCNC(=N)N)C(=O)N[C@H](CCCCN)C(N)=O [LV-12] (Ac-[dR][dK][dNle][dNle][d2Nal][dR][dNle][dK][d2Nal][dR][dK]-NH2) | 1 (≈ 0.607 µM) | 4 (≈ 2.43 µM) | 4 (≈ 2.43 µM) | 2 (≈ 1.21 µM) | 16 (≈ 9.72 µM) | 4 (≈ 2.43 µM) | 8 (≈ 4.86 µM) | 8 (≈ 4.86 µM) | 4 (≈ 2.43 µM) | 2 (≈ 1.21 µM) | 4 (≈ 2.43 µM) | >1000 | 1 | 0 | 1 | 0 | 2 | 1 | 11.1**** Days | 97.5 | Number of mice that died on each day after infection: day 4 ([12]; 0.2 mg/kg gavage): 1 Mouse; Number of mice that died on each day after infection: day 5 ([12]; 0.2 mg/kg gavage): 2 Mouse; Number of mice that died on each day after infection: day 6 ([12]; 0.2 mg/kg gavage): 2 Mouse; Number of mice that died on each day after infection: day 7 ([12]; 0.2 mg/kg gavage): 1 Mouse; Number of mice that died on each day after infection: day 8 ([12]; 0.2 mg/kg gavage): 0 Mouse; Average survival times (Days) ([12]; 0.2 mg/kg gavage): 8.9** Days; Number of mice that died on each day after infection: day 4 ([12]; 5 mg/kg gavage): 0 Mouse; Number of mice that died on each day after infection: day 5 ([12]; 5 mg/kg gavage): 2 Mouse; Number of mice that died on each day after infection: day 6 ([12]; 5 mg/kg gavage): 1 Mouse; Number of mice that died on each day after infection: day 7 ([12]; 5 mg/kg gavage): 1 Mouse; Number of mice that died on each day after infection: day 8 ([12]; 5 mg/kg gavage): 0 Mouse; Average survival times (Days) ([12]; 5 mg/kg gavage): 10.7*** Days; survival time of mice infected with Escherichia coli ([12]; gavage, observed 14 d): superior to those of the Levofloxacin group
2 | CC(=O)N[C@H](CCCNC(=N)N)C(=O)N[C@H](CCCCN)C(=O)N[C@H](CC(C)C)C(=O)N[C@H](CC(C)C)C(=O)N[C@H](Cc1ccc(C(F)(F)F)cc1)C(=O)N[C@H](CCCCN)C(=O)N[C@H](CC(C)C)C(=O)N[C@H](CCCCN)C(=O)N[C@H](Cc1ccc(C(F)(F)F)cc1)C(=O)N[C@H](CCCCN)C(=O)N[C@H](CCCNC(=N)N)C(N)=O [LV-9] (Ac-[dR][dK][dL][dL][dPhe(4-CF3)][dK][dL][dK][dPhe(4-CF3)][dK][dR]-NH2) | 1 (≈ 0.605 µM) | 8 (≈ 4.84 µM) | 16 (≈ 9.67 µM) | 2 (≈ 1.21 µM) | 16 (≈ 9.67 µM) | 2 (≈ 1.21 µM) | 2 (≈ 1.21 µM) | 2 (≈ 1.21 µM) | 8 (≈ 4.84 µM) | 4 (≈ 2.42 µM) | 4 (≈ 2.42 µM) | >1000 | 1 | 1 | 1 | 1 | 2 | 0 | 9.9** Days | 97.3 | 
